{"source": "patent US12466813B2", "about": "“PRC1 inhibitors and methods of treatment therewith” (The Regents of the University of Michigan, priority 2018, dated 2025)", "data": [{"target": "T1, RING1B-BMI1 (Homo sapiens, UniProt Q99496)", "T1 sequence (Q99496 1-336)": "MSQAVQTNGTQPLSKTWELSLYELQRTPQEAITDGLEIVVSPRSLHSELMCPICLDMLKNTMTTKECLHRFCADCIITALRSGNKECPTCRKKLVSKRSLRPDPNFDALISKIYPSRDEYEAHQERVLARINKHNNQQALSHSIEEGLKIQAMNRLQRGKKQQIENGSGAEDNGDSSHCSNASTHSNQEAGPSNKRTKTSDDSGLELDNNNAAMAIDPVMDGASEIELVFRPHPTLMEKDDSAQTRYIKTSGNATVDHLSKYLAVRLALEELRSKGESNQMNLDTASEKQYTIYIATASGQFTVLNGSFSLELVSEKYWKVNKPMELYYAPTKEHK", "T1 sequence (P35226 1-326 partner)": "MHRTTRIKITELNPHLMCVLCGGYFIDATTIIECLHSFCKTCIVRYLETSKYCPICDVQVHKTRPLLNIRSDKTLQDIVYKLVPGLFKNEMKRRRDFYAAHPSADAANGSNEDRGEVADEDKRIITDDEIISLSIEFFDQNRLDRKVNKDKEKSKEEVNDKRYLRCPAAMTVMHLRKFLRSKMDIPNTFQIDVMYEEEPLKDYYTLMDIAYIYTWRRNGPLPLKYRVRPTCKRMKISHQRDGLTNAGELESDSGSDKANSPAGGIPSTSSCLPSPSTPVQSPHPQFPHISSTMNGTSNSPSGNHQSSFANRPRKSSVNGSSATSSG", "assay": "KD classes of Table A (direct binding to Ring1B-Bmi1)", "settings": "class given in Table A", "method": "Experiments were conducted during development of embodiments herein to develop small molecule inhibitors of PRC1 by targeting the Ring1B-BMI1 E3 ligase. These compounds bind directly to Ring1B-Bmi1 with low-micromolar affinity and inhibit PRC1 in vitro and in cells. […] Experiments were conducted during development of embodiments herein to test COMPOUND 1 in leukemia stem cell models represented by TEX cells (Ref. 22; herein incorporated by reference in its entirety) and M9-ENL1 cells (Ref. 23; herein incorporated by reference in its entirety). […] In some embodiments, COMPOUND 1 and COMPOUND 1 analogs are find use as agents in targeting leukemia and other cancer stem cells.\nThe compounds listed in Table A have been synthesized and/or tested for activity in inhibiting activity of PRC1 complex, and are within the scope herein.", "units": {"Kd": "µM"}, "values": [{"compound": "CC(C)c1c(-c2cc(F)cc3[nH]ccc23)[nH]c(C(=O)O)c1-c1ccnc2[nH]c(C3=CCN(S(=O)(=O)N(C)C)CC3)cc12", "note": "[compound 257]", "Kd": "< 20"}, {"compound": "Cc1ccc(-c2ccc(C(=O)O)[nH]2)cc1", "note": "[compound 151]", "Kd": "> 100"}, {"compound": "COc1ccc(-c2c(C(=O)O)[nH]c(-c3cc(F)cc4[nH]ccc34)c2C(C)C)c(F)c1", "note": "[compound 58]", "Kd": "< 20"}, {"compound": "COc1cc(-c2c(C(=O)O)[nH]c(-c3cc(F)cc4[nH]ccc34)c2C(C)C)c2ccn(CC(N)=O)c2c1", "note": "[compound 175]", "Kd": "< 20"}, {"compound": "NC(=O)c1ccc(-c2cccc3[nH]ccc23)[nH]1", "note": "[compound 145]", "Kd": "> 100"}, {"compound": "CC(C)c1c(-c2ccc3cc[nH]c3c2)[nH]c(C(=O)O)c1-c1c(Cl)ccc2[nH]ccc12", "note": "[compound 182, 3-(5-chloro-1H-indol-4-yl)-5-(1H-indol-6-yl)-4-isopropyl-1H-pyrrole-2-carboxylic acid]", "Kd": "< 20"}, {"compound": "O=C(O)c1[nH]c(-c2cccc3[nH]ccc23)c2c1CCCC2", "note": "[compound 115]", "Kd": "> 100"}, {"compound": "COc1cc(-c2c(C(=O)O)[nH]c(-c3cc(F)cc4[nH]ccc34)c2C(C)C)c2ccn(CCNC(=O)Cc3cscn3)c2c1", "note": "[compound 178]", "Kd": "< 20"}, {"compound": "CCc1c(-c2cccc3[nH]ccc23)[nH]c(C(=O)O)c1-c1c(Cl)ccc2[nH]ccc12", "note": "[compound 16]", "Kd": "< 20"}, {"compound": "CC(C)c1c(-c2cc(F)cc3[nH]ccc23)[nH]c(S(N)(=O)=O)c1-c1cccc2[nH]ccc12", "note": "[compound 217]", "Kd": "< 20"}, {"compound": "CC(C)c1c(-c2cc(F)cc3[nH]ccc23)[nH]c(C(=O)O)c1-c1cccc2nc(NS(C)(=O)=O)sc12", "note": "[compound 232]", "Kd": "< 20"}, {"compound": "CC(C)c1c(-c2cc(F)cc3[nH]ccc23)[nH]c(C(=O)O)c1-c1cccc2[nH]c3c(c12)CCC3", "note": "[compound 212]", "Kd": "< 20"}, {"compound": "CC(C)c1c(-c2ccc3[nH]ccc3c2)[nH]c(C(=O)O)c1-c1c(Cl)ccc2[nH]ccc12", "note": "[compound 181]", "Kd": "< 20"}, {"compound": "Cn1ccc2c(-c3ccc(C(=O)O)[nH]3)cccc21", "note": "[compound 127]", "Kd": "> 100"}, {"compound": "CCc1c(-c2cccc3[nH]ccc23)[nH]c(C(=O)O)c1-c1cccc2c1ccn2CCO", "note": "[compound 77]", "Kd": "20 to 50"}, {"compound": "Cc1cc(-c2cccc3[nH]ccc23)[nH]c1C(=O)O", "note": "[compound 120]", "Kd": "> 100"}, {"compound": "CC(C)c1c(-c2cc(F)cc3[nH]ccc23)[nH]c(C(=O)O)c1-c1ccnc2[nH]c(C3=CCNCC3)cc12", "note": "[compound 255]", "Kd": "< 20"}, {"compound": "CC(C)c1c(-c2cc(F)cc3cc[nH]c23)[nH]c(C(=O)O)c1-c1c(Cl)ccc2[nH]ccc12", "note": "[compound 185]", "Kd": "< 20"}, {"compound": "CCc1c(-c2cccc3[nH]ccc23)[nH]c(C(=O)O)c1-c1cccc(C)c1", "note": "[compound 99]", "Kd": "50 to 100"}, {"compound": "CCC(C)c1c(-c2cc(F)cc3[nH]ccc23)[nH]c(C(=O)O)c1-c1cc(OC)cc2[nH]c(CO)cc12", "note": "(centres unmarked) [compound 195]", "Kd": "< 20"}, {"compound": "COc1cnc2[nH]ccc2c1-c1c(C(=O)O)[nH]c(-c2cc(F)cc3[nH]ccc23)c1C(C)C", "note": "[compound 247]", "Kd": "< 20"}, {"compound": "CCc1c(-c2cccc3[nH]ccc23)[nH]c(C(=O)O)c1-c1cccc2[nH]ccc12", "note": "[compound 20]", "Kd": "< 20"}, {"compound": "COc1ccc(-c2ccc(C(=O)O)[nH]2)cc1", "note": "[compound 157]", "Kd": "> 100"}, {"compound": "CCc1c(-c2ccccc2O)[nH]c(C(=O)O)c1-c1ccccc1Cl", "note": "[compound 107]", "Kd": "> 100"}, {"compound": "CCc1c(-c2cccc3c2ccn3C)[nH]c(C(=O)O)c1-c1ccc(OC)cc1", "note": "[compound 108]", "Kd": "> 100"}, {"compound": "COc1cc(-c2c(C(=O)O)[nH]c(-c3cc(F)cc4[nH]ccc34)c2C(C)C)c2ccn(CCNC(=O)c3nccs3)c2c1", "note": "[compound 177, 5-(6-fluoro-1H-indol-4-yl)-4-isopropyl-3-(6-methoxy-1-(2-(thiazole-2-carboxamido)ethyl)-1H-indol-4-yl)-1H-pyrrole-2-carboxylic acid]", "Kd": "< 20"}, {"compound": "CCc1cc(-c2[nH]c(C(=O)O)c(-c3c(Cl)ccc4[nH]ccc34)c2C(C)C)c2cc[nH]c2c1", "note": "[compound 9]", "Kd": "< 20"}, {"compound": "CC(C)c1c(-c2cc(F)cc3[nH]ccc23)[nH]c(C(=O)O)c1-c1c(C(F)(F)F)cnc2[nH]ccc12", "note": "[compound 248]", "Kd": "< 20"}, {"compound": "CCc1c(-c2cccc3[nH]ccc23)[nH]c(C(=O)O)c1-c1cnccc1Cl", "note": "[compound 94]", "Kd": "50 to 100"}, {"compound": "CCCCc1c(-c2cccc3[nH]ccc23)[nH]c(C(=O)O)c1-c1ccccc1Cl", "note": "[compound 162]", "Kd": "> 100"}, {"compound": "CCc1c(-c2cccc3[nH]ccc23)[nH]c(C(=O)O)c1CCc1ccccc1", "note": "[compound 90]", "Kd": "50 to 100"}, {"compound": "CCc1c(-c2cccc3[nH]ccc23)[nH]c(C(=O)O)c1-c1cccc(Cl)c1Cl", "note": "[compound 84]", "Kd": "20 to 50"}, {"compound": "CCc1c(C(=O)O)[nH]c(-c2cccc3c2ccn3C)c1CC", "note": "[compound 111]", "Kd": "> 100"}, {"compound": "COc1cc(-c2c(C(=O)O)[nH]c(-c3cc(F)cc4[nH]ccc34)c2C(C)C)c2c(C)c[nH]c2c1", "note": "[compound 183]", "Kd": "< 20"}, {"compound": "CC(C)c1c(-c2cc(F)cc3[nH]ccc23)[nH]c(C(=O)O)c1-c1c(F)cnc2[nH]ccc12", "note": "[compound 246]", "Kd": "< 20"}, {"compound": "CC(C)c1c(-c2cc(F)cc3[nH]ccc23)[nH]c(C(=O)O)c1-c1cccc2[nH]c(-c3cc[nH]n3)cc12", "note": "[compound 258]", "Kd": "< 20"}, {"compound": "CC(C)c1c(-c2cccc3[nH]ccc23)c(C(=O)O)n2c1-c1cc(F)cc3ccn(c13)[C@@H](C)C2", "note": "[compound 271]", "Kd": "< 20"}, {"compound": "Cc1cnc2[nH]ccc2c1-c1c(C(=O)O)[nH]c(-c2cc(F)cc3[nH]ccc23)c1C(C)C", "note": "[compound 209]", "Kd": "< 20"}, {"compound": "CCc1c(-c2cccc3[nH]ccc23)[nH]c(C(=O)O)c1-c1cccc(Oc2ccccc2)c1", "note": "[compound 97]", "Kd": "50 to 100"}, {"compound": "CC(C)c1c(-c2cc(F)cc3[nH]ccc23)[nH]c(C(=O)O)c1-c1ccc2c(c1)OCCO2", "note": "[compound 61]", "Kd": "< 20"}, {"compound": "CC(C)c1c(-c2cc(F)cc3[nH]ccc23)[nH]c(CCS(N)(=O)=O)c1-c1cccc2[nH]ccc12", "note": "[compound 221]", "Kd": "< 20"}, {"compound": "CC(C)c1c(-c2cc(F)cc3[nH]ccc23)[nH]c(CC(=O)O)c1-c1cccc2[nH]ccc12", "note": "[compound 215]", "Kd": "< 20"}, {"compound": "Cn1c(C(=O)O)ccc1-c1cccc2[nH]ccc12", "note": "[compound 123]", "Kd": "> 100"}, {"compound": "CCc1c(-c2cccc3[nH]ncc23)[nH]c(C(=O)O)c1-c1ccc(OC)cc1Cl", "note": "[compound 91]", "Kd": "50 to 100"}, {"compound": "CC(C)c1c(-c2cc(F)cc3[nH]ccc23)[nH]c(CCC(=O)O)c1-c1cccc2[nH]ccc12", "note": "[compound 216]", "Kd": "< 20"}, {"compound": "COc1ccc(-c2c(C(=O)O)[nH]c(-c3cccc4[nH]ccc34)c2C(C)C)c(Cl)c1", "note": "[compound 19]", "Kd": "< 20"}, {"compound": "CC(C)c1c(-c2cccc3c2ccn3N)[nH]c(C(=O)O)c1-c1cccc2[nH]ccc12", "note": "[compound 214]", "Kd": "< 20"}, {"compound": "CC(C)c1c(-c2cc(F)cc3[nH]ccc23)[nH]c(C(=O)O)c1-c1ccnc2[nH]c(-c3cc[nH]n3)cc12", "note": "[compound 249]", "Kd": "< 20"}, {"compound": "CC(C)c1c(-c2cc(F)cc3[nH]ccc23)[nH]c(C(=O)O)c1-c1cccc2[nH]c(-c3cc(O)no3)cc12", "note": "[compound 226]", "Kd": "< 20"}, {"compound": "CC(C)c1c(-c2cc(F)cc3[nH]ccc23)[nH]c(C(=O)O)c1-c1ccnc2[nH]c(-c3ccccc3Cl)cc12", "note": "[compound 254]", "Kd": "< 20"}, {"compound": "CCc1c(-c2cccc3[nH]ccc23)[nH]c(C(=O)O)c1-c1ccc(O)cc1Cl", "note": "[compound 92]", "Kd": "50 to 100"}, {"compound": "COc1ccccc1-c1ccc(C(=O)O)[nH]1", "note": "[compound 142]", "Kd": "> 100"}, {"compound": "COc1cc(-c2c(C(=O)O)[nH]c(-c3cc(F)cc4[nH]ccc34)c2C2CCCC2)c2cc[nH]c2c1", "note": "[compound 173]", "Kd": "< 20"}, {"compound": "CCn1ccc2cc(-c3[nH]c(C(=O)O)c(-c4c(Cl)ccc5[nH]ccc45)c3C(C)C)ccc21", "note": "[compound 184]", "Kd": "< 20"}, {"compound": "COc1cc(-c2c(C(=O)O)[nH]c(-c3cc(F)cc4[nH]ccc34)c2C(C)C)c2ccn(CC(=O)NCc3nc(C)cs3)c2c1", "note": "[compound 179]", "Kd": "< 20"}, {"compound": "CNCc1ccc2[nH]ccc2c1-c1c(C(=O)O)[nH]c(-c2cc(F)cc3[nH]ccc23)c1C(C)C", "note": "[compound 239]", "Kd": "< 20"}, {"compound": "CCc1c(C(=O)O)[nH]c(-c2cccc3[nH]ccc23)c1CC", "note": "[compound 112]", "Kd": "> 100"}, {"compound": "CC(C)c1c(-c2cc(F)cc3[nH]ccc23)[nH]c(C(=O)O)c1-c1cc(C(F)(F)F)cc2[nH]ccc12", "note": "[compound 43]", "Kd": "< 20"}, {"compound": "CC(C)c1c(-c2cc(F)cc3[nH]ccc23)[nH]c(C(=O)O)c1-c1c(Cl)ccc2[nH]c(C(=O)O)cc12", "note": "[compound 53]", "Kd": "< 20"}, {"compound": "CCc1c(-c2cccc3[nH]ccc23)[nH]c(C(=O)O)c1-c1cccc(F)c1", "note": "[compound 86]", "Kd": "20 to 50"}, {"compound": "O=C(O)c1ccc(-c2ccccc2OCc2ccccc2)[nH]1", "note": "[compound 138]", "Kd": "> 100"}, {"compound": "CC(C)c1c(-c2cc(F)cc3[nH]ccc23)[nH]c(C(=O)O)c1-c1ccc(Oc2nccs2)cc1", "note": "[compound 62]", "Kd": "< 20"}]}]}
